Assay results from BindingDB's records for doi:10.1021/jm000496v (Welfide, 2001).

Molecular target: Chymotrypsinogen A (Bos taurus) (UniProt P00766)
Test: Inhibitory activity against alpha chymotrypsin from bovine pancreas.

## Nc1cnc(-c2ccc(F)cc2)n(CC(=O)NC(Cc2ccccc2)C(=O)c2nc3cc(-c4ccccc4)ccc3o2)c1=O (stereo unspecified) [2-[5-Amino-2-(4-fluoro-phenyl)-6-oxo-6H-pyrimidin-1-yl]-N-[1-benzyl-2-oxo-2-(5-phenyl-benzooxazol-2-yl)-ethyl]-acetamide]
  Ki: 1630 nM
